Data as given in ChEMBL document CHEMBL1147043, “Comparative metabolism of radiolabeled muraglitazar in animals and humans by quantitative and qualitative metabolite profiling” (Drug Metab Dispos, 2007).

Experiments:
[1] = Half life in human at 10 mg, po after 72 hrs; type: ADME, organism-based; conditions: in vivo
Plasma [2] = test: Biodistribution in orally dosed Sprague-Dawley rat plasma assessed as 12-dihydroxy muraglitazar level after 12 hrs by LC/MS analysis; type: ADME, organism-based; conditions: in vivo, po
[3] = Drug concentration in cynomolgus monkey feces assessed as recovery of radioactive dose at 2 mg/kg, po after 168 hrs; type: ADME, organism-based, Macaca fascicularis; parameters: dose 2 mg/kg, route oral; conditions: in vivo
Rattus norvegicus [4] = test: Biodistribution in orally dosed Sprague-Dawley rat urine assessed as 9-hydroxy-O-demethyl muraglitazar level by LC/MS analysis; type: ADME, organism-based; conditions: in vivo, po
Plasma [5] = test: Biodistribution in orally dosed cynomolgus monkey plasma assessed as 12,17-dihydroxy muraglitazar level after 12 hrs by LC/MS analysis; type: ADME, organism-based, Macaca fascicularis; conditions: in vivo, po
Plasma [6] = test: Biodistribution in orally dosed cynomolgus monkey plasma assessed as 12-hydroxy-O-demethyl muraglitazar level after 12 hrs by LC/MS analysis; type: ADME, organism-based, Macaca fascicularis; conditions: in vivo, po
[7] = Biodistribution in orally dosed cynomolgus monkey feces assessed as 12,17-dihydroxy muraglitazar level by LC/MS analysis; type: ADME, organism-based, Macaca fascicularis; conditions: in vivo, po
Hepatocyte [8] = test: Metabolic stability in Sprague-Dawley rat hepatocytes assessed as radioactivity recovaries at 25.6 ug/mL after 4 hrs; type: ADME, cell-based
[9] = Drug concentration in human feces assessed as recovery of radioactive dose at 20 mg, po after 240 hrs; type: ADME, organism-based; conditions: in vivo
[10] = Bile excretion of compound in bile duct-cannulated orally dosed Sprague-Dawley rat within 24 hrs; type: ADME, organism-based; conditions: po, read-out: Activity
Plasma [11] = test: Biodistribution in orally dosed Sprague-Dawley rat plasma assessed as muraglitazar glucuronide level after 12 hrs by LC/MS analysis; type: ADME, organism-based; conditions: in vivo, po
Plasma [12] = test: Biodistribution in orally dosed Sprague-Dawley rat plasma assessed as O-demethyl muraglitazar level after 1 hr by LC/MS analysis; type: ADME, organism-based; conditions: in vivo, po
Plasma [13] = test: Biodistribution in orally dosed cynomolgus monkey plasma assessed as […] muraglitazar level after 12 hrs by LC/MS analysis; type: ADME, organism-based, Macaca fascicularis; conditions: in vivo, po
[14] = Half life in cynomolgus monkey at 1.9 mg/kg, po after 24 hrs; type: ADME, organism-based, Macaca fascicularis; parameters: dose 1.9 mg/kg, route oral; conditions: in vivo
[15] = Biodistribution in orally dosed Beagle dog feces assessed as 12-hydroxy-O-demethyl muraglitazar level by LC/MS analysis; type: ADME, organism-based, Canis lupus familiaris; conditions: in vivo, po
[16] = Biodistribution in orally dosed cynomolgus monkey feces assessed as 8,12-dihydroxy muraglitazar level by LC/MS analysis; type: ADME, organism-based, Macaca fascicularis; conditions: in vivo, po
[17] = Biodistribution in orally dosed human urine assessed as 17-hydroxy muraglitazar level by LC/MS analysis; type: ADME, organism-based; conditions: in vivo, po
[18] = Biodistribution in orally dosed Beagle dog feces assessed as 9-hydroxy muraglitazar level by LC/MS analysis; type: ADME, organism-based, Canis lupus familiaris; conditions: in vivo, po
Plasma [19] = test: Biodistribution in orally dosed Sprague-Dawley rat plasma assessed as 12,17-dihydroxy muraglitazar level after 12 hrs by LC/MS analysis; type: ADME, organism-based; conditions: in vivo, po
Plasma [20] = test: Biodistribution in orally dosed Sprague-Dawley rat plasma assessed as […] muraglitazar level after 12 hrs by LC/MS analysis; type: ADME, organism-based; conditions: in vivo, po
[21] = Biodistribution in orally dosed Beagle dog feces assessed as O-dealkyl muraglitazar level by LC/MS analysis; type: ADME, organism-based, Canis lupus familiaris; conditions: in vivo, po
Hepatocyte [22] = test: Metabolic stability in Sprague-Dawley rat hepatocytes assessed as 17-hydroxy-O-demethyl muraglitazar level by LC/MS analysis relative to control; type: ADME, cell-based
[23] = Biodistribution in orally dosed human feces assessed as 8-hydroxy muraglitazar level by LC/MS analysis; type: ADME, organism-based; conditions: in vivo, po
Plasma [24] = test: Biodistribution in orally dosed Beagle dog plasma assessed as 12-hydroxy-O-demethyl muraglitazar level after 1 hr by LC/MS analysis; type: ADME, organism-based, Canis lupus familiaris; conditions: in vivo, po
[25] = Fecal excretion of compound in orally dosed cynomolgus monkey within 48 hrs; type: ADME, organism-based, Macaca fascicularis; conditions: faeces, po, read-out: Activity
Hepatocyte [26] = test: Metabolic stability in human hepatocytes assessed as 8,12-dihydroxy muraglitazar level by LC/MS analysis relative to control; type: ADME, cell-based
[27] = Drug concentration in bile duct-cannulated Sprague-Dawley rat bile assessed as recovery of radioactive dose at 11 mg/kg, po after 24 hrs; type: ADME, organism-based; parameters: dose 11 mg/kg, route oral; conditions: in vivo
Plasma [28] = test: Biodistribution in orally dosed cynomolgus monkey plasma assessed as muraglitazar glucuronide level after 1 hr by LC/MS analysis; type: ADME, organism-based, Macaca fascicularis; conditions: in vivo, po
[29] = Biodistribution in orally dosed human feces assessed as 17-hydroxy muraglitazar level by LC/MS analysis; type: ADME, organism-based; conditions: in vivo, po
Plasma [30] = test: Biodistribution in orally dosed cynomolgus monkey plasma assessed as 12-dihydroxy muraglitazar level after 12 hrs by LC/MS analysis; type: ADME, organism-based, Macaca fascicularis; conditions: in vivo, po
Plasma [31] = test: Biodistribution in orally dosed human plasma assessed as 12-hydroxy-O-demethyl muraglitazar level after 4 hrs by LC/MS analysis; type: ADME, organism-based; conditions: in vivo, po
[32] = Biodistribution in orally dosed cynomolgus monkey feces assessed as 9-hydroxy-O-demethyl muraglitazar level by LC/MS analysis; type: ADME, organism-based, Macaca fascicularis; conditions: in vivo, po
Hepatocyte [33] = test: Metabolic stability in human hepatocytes assessed as 12,17-dihydroxy muraglitazar level by LC/MS analysis relative to control; type: ADME, cell-based
[34] = Drug concentration in human urine at 10 mg/kg, po after 8 hrs; type: ADME, organism-based; parameters: dose 10 mg/kg, route oral; conditions: read-out: Drug uptake
[35] = Biodistribution in orally dosed Beagle dog feces assessed as 12,17-dihydroxy muraglitazar level by LC/MS analysis; type: ADME, organism-based, Canis lupus familiaris; conditions: in vivo, po
[36] = Metabolic stability in cynomolgus monkey hepatocytes assessed as 9-hydroxy-O-demethyl muraglitazar level by LC/MS analysis relative to control; type: ADME, cell-based, Macaca fascicularis, Hepatocyte
[37] = Tmax in Sprague-Dawley rat at 10 mg/kg, po after 24 hrs; type: ADME, organism-based; parameters: dose 10 mg/kg, route oral; conditions: in vivo
[38] = Biodistribution in orally dosed cynomolgus monkey urine assessed as muraglitazar 12-carboxylic acid level by LC/MS analysis; type: ADME, organism-based, Macaca fascicularis; conditions: in vivo, po
Plasma [39] = test: Biodistribution in orally dosed cynomolgus monkey plasma assessed as […] muraglitazar level after 4 hrs by LC/MS analysis; type: ADME, organism-based, Macaca fascicularis; conditions: in vivo, po
[40] = Biodistribution in orally dosed human feces assessed as 12,17-dihydroxy muraglitazar level by LC/MS analysis; type: ADME, organism-based; conditions: in vivo, po
Plasma [41] = test: Biodistribution in orally dosed cynomolgus monkey plasma assessed as muraglitazar 12-carboxylic acid level after 12 hrs by LC/MS analysis; type: ADME, organism-based, Macaca fascicularis; conditions: in vivo, po
Hepatocyte [42] = test: Metabolic stability in human hepatocytes assessed as 9-hydroxy-O-demethyl muraglitazar level by LC/MS analysis relative to control; type: ADME, cell-based
[43] = Drug concentration in bile duct-cannulated Sprague-Dawley rat bile at 10 mg/kg, po after 24 hrs; type: ADME, organism-based; parameters: dose 10 mg/kg, route oral; conditions: in vivo
[44] = Fecal excretion of compound in orally dosed human within 48 hrs; type: ADME, organism-based; conditions: faeces, po, read-out: Activity
[45] = Biodistribution in orally dosed cynomolgus monkey urine assessed as 17-hydroxy muraglitazar level by LC/MS analysis; type: ADME, organism-based, Macaca fascicularis; conditions: in vivo, po
[46] = Metabolic stability in CD1 mouse hepatocytes assessed as 8,12-dihydroxy muraglitazar level by LC/MS analysis relative to control; type: ADME, cell-based, Hepatocyte
Homo sapiens = test: AUC (0 to T) in human at 10 mg, po after 72 hrs; type: ADME, organism-based, Plasma; parameters: dose 10 mg, time < 72 hr, route oral; conditions: in vivo
[47] = Biodistribution in orally dosed cynomolgus monkey feces assessed as acetylimide derivative of muraglitazar level by LC/MS analysis; type: ADME, organism-based, Macaca fascicularis; conditions: in vivo, po
[48] = Biodistribution in orally dosed cynomolgus monkey urine assessed as O-dealkyl-O-demethyl muraglitazar level by LC/MS analysis; type: ADME, organism-based, Macaca fascicularis; conditions: in vivo, po
Plasma [49] = test: Biodistribution in orally dosed cynomolgus monkey plasma assessed as O-demethyl muraglitazar level after 1 hr by LC/MS analysis; type: ADME, organism-based, Macaca fascicularis; conditions: in vivo, po
[50] = Drug concentration in cynomolgus monkey urine assessed as recovery of radioactive dose at 2 mg/kg, po after 168 hrs; type: ADME, organism-based, Macaca fascicularis; parameters: dose 2 mg/kg, route oral; conditions: in vivo
Hepatocyte [51] = test: Metabolic stability in human hepatocytes assessed as 17-hydroxy muraglitazar level by LC/MS analysis relative to control; type: ADME, cell-based
Rattus norvegicus [52] = test: Biodistribution in orally dosed Sprague-Dawley rat urine assessed as 17-hydroxy-O-demethyl muraglitazar level by LC/MS analysis; type: ADME, organism-based; conditions: in vivo, po

COc1ccc(OC(=O)N(CC(=O)O)Cc2ccc(OCCc3nc(-c4ccccc4)oc3C)cc2)cc1 [MURAGLITAZAR]
half-life [1]: 19.8 h
Drug uptake (Plasma [2]): 0.2%
Drug uptake [3]: 80.4%
Drug uptake (Rattus norvegicus [4]): 0.43%
Drug uptake (Plasma [5]): 1%
Drug uptake (Plasma [6]): 2.7%
Drug uptake [7]: 6.43%
Stability (Hepatocyte [8]): 96.5%
Drug uptake [9]: 50.7%
dose excreted at 24 h [10]: 65%
Drug uptake (Plasma [11]): 0.05%
Drug uptake (Plasma [12]): 2.3%
Drug uptake (Plasma [13]): 1%
half-life [14]: 23.5 h
Drug uptake [15]: 0.38%
Drug uptake [16]: 2.41%
Drug uptake [17]: 0.07%
Drug uptake [18]: 0.85%
Drug uptake (Plasma [19]): < 0.05%
Drug uptake (Plasma [20]): < 0.05%
Drug uptake [21]: 0.89%
Drug uptake (Hepatocyte [22]): < 0.2%
Drug uptake [23]: 0.56%
Drug uptake (Plasma [24]): 1%
dose excreted at 48 h [25]: 30%
Drug uptake (Hepatocyte [26]): < 0.2%
Drug uptake [27]: 65.1%
Drug uptake (Plasma [28]): 0.1%
Drug uptake [29]: 5.92%
Drug uptake (Plasma [30]): 0.4%
Drug uptake (Plasma [31]): 0.3%
Drug uptake [32]: 0.32%
Drug uptake (Hepatocyte [33]): 0.2%
dose excreted at 8 h [34]: 1.3%
Drug uptake [35]: 0.89%
Drug uptake [36]: 0.5%
Tmax [37]: 0.5 h
Drug uptake [38]: 0.04%
Drug uptake (Plasma [39]): 1.3%
Drug uptake [40]: 0.56%
Drug uptake (Plasma [41]): 0.5%
Drug uptake (Hepatocyte [42]): < 0.2%
Drug uptake [43]: 0.289 mgequiv/ml
dose excreted at 48 h [44]: 25%
Drug uptake [45]: 0.59%
Drug uptake [46]: 0.3%
AUC (Homo sapiens): 9 ugequiv.h/ml
Drug uptake [47]: 0.16%
Drug uptake [48]: 0.33%
Drug uptake (Plasma [49]): 0.1%
Drug uptake [50]: 3.7%
Drug uptake (Hepatocyte [51]): 4.4%
Drug uptake (Rattus norvegicus [52]): 0.01%
